Measured values published in article PMC10590056, “Design and synthesis of cabotegravir derivatives bearing 1,2,3-triazole and evaluation of anti-liver cancer activity” (Frontiers in Pharmacology, 2023).
“And” between values parts separate entries of the source, which are not always exact repeats. Equal entries are not always repeated. Where two headings read alike, the source gives them in different places.

Experiments:
Type in all cases: cell-based
HeLa cells = assay: MTT assay for cell proliferation, HeLa; set-up: key to Inhibitory rate: inhibition rate = 1 - mean A490 sample/mean A490 control (fraction)
Procedure, shortened: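 Cells grown in DMEM with 10% FBS at 37 °C, 5% CO2, seeded at 10^5 cells/mL and exposed to KJ-5 or KJ-12 at 0–32 μM for 48 h. MTT added for 4 h, formazan dissolved in DMSO, A490 read; inhibition = (1 − sample/control A490) × 100%.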

normal hepatic cells L02 = assay: MTT inhibition rate in normal hepatic cells L02; conditions: for Average OD / Inhibitory rate / ODtreated/ODcontrol: L02 cells, 3 repeat experiments; for Average OD: average of 5 wells; for Inhibitory rate / ODtreated/ODcontrol: fraction
HepG2 cells [1] = assay: Annexin V-FITC/PI staining for cell apoptosis (flow cytometry); conditions: 24 h; for Proportion of apoptotic cells: Annexin-V/PI
Experimental: HepG2 cells were plated in a 6-well plate at a density of 5 × 10^6 cells/well and incubated for 24 h. Then, the original culture medium was replaced with 2 mL DMEM containing KJ-5 or KJ-12 (2, 4, and 8 μM) and incubated for 24 h. After incubation with KJ-5 or KJ-12, the cells were washed with cold PBS and then resuspended in 100 µL binding buffer at a concentration of 1 × 10^6 cells/mL. Then, 5 μl of FITC Annexin V and 5 µl of PI were added to the solution. The cells were gently vortexed and incubated for 15 min at room temperature (25°C) in the dark. Subsequently, 400 µL binding buffer was added to each tube, and the samples were analyzed by flow cytometry (BD Accuri™ C6 Plus) within 1 h.

HepG2 cells [2] = assay: Cell cycle analysis (PI, flow cytometry); conditions: 24 h
Experimental: HepG2 cells were seeded in a 6-well plate at a density of 5 × 10^6 cells/well and treated with either KJ-5 or KJ-12 at concentrations of 2, 4, or 8 μM for 24 h. Cells were then collected and responded in […] of cold PBS. Subsequently, 700 μL of cold 70% ethanol was added to the cells and gently mixed by inversion on ice for 1 h. Cells were then centrifuged at 2,000 rpm for 10 min, washed once with 2 mL of cold PBS, and the supernatant was discarded. The cell pellet was resuspended in 250 μL of cold PBS, followed by the addition of 10 μL of RNase at a final concentration of 0.4 mg/mL and incubated at 37°C for 30 min. An additional 250 μL of PBS was added, followed by the addition of 5 μL of PI solution at a final concentration of 10 μg/mL. The samples were incubated […] in the dark overnight at 4°C. Finally, the samples were analyzed by flow cytometry.

HepG2 cells [3] = assay: Transwell migration assay (without Matrigel); conditions: HepG2, 24 h treatment, vs control
Experimental: HepG2 cells were treated with either KJ-5 or KJ-12 for 24 h. Then, the cells were suspended and seeded into the upper chamber of a 24-well Transwell plate (Corning Inc., United States) in serum-free medium. The cells were cultured for 24 h at 37°C; a medium containing 20% FBS as a chemoattractant was added to the lower chamber. HepG2 cells that had invaded through the membrane were fixed with 4% paraformaldehyde for 20 min and stained with 0.1% crystal violet. Five random fields were then imaged and quantified using an inverted fluorescence microscope (Axio Observer3, Germany). To assess invasion, transwell assays were performed in a similar manner, with the exception of coating the upper chamber of the Transwell with 100 μL of diluted Matrigel solution per well.

With COc1c2n(cc(C(=O)Nc3cccc(-c4cn(-c5c(C)cc(C)cc5C)nn4)c3)c1=O)C[C@H]1OC[C@H](C)N1C2=O [KJ-12] the Inhibitory rate (HeLa cells; Hela, group 1 (concentration), fraction, single experiments) was 0.2971 and 0.2883 and 0.2551, the ODtreated/ODcontrol (HeLa cells; Hela, group 1 (concentration), single experiments) was 0.7029 and 0.7117 and 0.7449 and the Inhibitory rate (HeLa cells; Hela, group 2 (concentration), fraction, single experiments) was 0.3155 and 0.3221 and 0.3198. The ODtreated/ODcontrol (HeLa cells; Hela, group 2 (concentration), single experiments) was 0.6845 and 0.6779 and 0.6802, the Inhibitory rate (HeLa cells; Hela, group 4 (concentration), fraction, single experiments) was 0.3594 and 0.3533 and 0.3688 and the ODtreated/ODcontrol (HeLa cells; Hela, group 4 (concentration), single experiments) was 0.6406 and 0.6467 and 0.6312. For the same molecule, the Inhibitory rate (HeLa cells; Hela, group 8 (concentration), fraction, single experiments) was 0.7153 and 0.627 and 0.5661, the ODtreated/ODcontrol (HeLa cells; Hela, group 8 (concentration), single experiments) was 0.2847 and 0.373 and 0.4339 and the Inhibitory rate (HeLa cells; Hela, group 16 (concentration), fraction, single experiments) was 0.7226 and 0.7292 and 0.7302. For the same molecule, the ODtreated/ODcontrol (HeLa cells; Hela, group 16 (concentration), single experiments) was 0.2774 and 0.2708 and 0.2698, the Inhibitory rate (HeLa cells; Hela, group 32 (concentration), fraction, single experiments) was 0.7312 and 0.7755 and 0.8162 and the ODtreated/ODcontrol (HeLa cells; Hela, group 32 (concentration), single experiments) was 0.2688 and 0.2245 and 0.1838. The IC50 (HeLa cells; Hela, one of three experiments, unit inferred, read-out: IC50, single experiment, Hela) was 5.49 µM and 4.82 µM, the Inhibitory rate (HeLa cells; Hela, fraction, per experiment) was 0.7218 and 0.7353 and 0.6986 and the ODtreated/ODcontrol (HeLa cells; Hela, fraction, per experiment) was 0.2782 and 0.2647 and 0.3014. For the same molecule, the IC50 (HeLa cells; Homo sapiens, HeLa, 48 h, HeLa, 48 h, MTT, read-out: IC50 HeLa) was 5.17 ± 0.34 µM, the IC50 (HeLa cells; Homo sapiens, HeLa, one of three experiments, unit inferred, read-out: IC50, single experiment, Hela) was 5.19 µM and the inhibition at 16 µM (HeLa cells; Homo sapiens, preliminary screening, Hela, 16 μM, 48 h, mean±SD, unit inferred, read-out: Inhibition rate (16μM), 48 h, Hela) was 71.9 ± 1.86%. For the same molecule, the inhibition at 1 µM (normal hepatic cells L02; Homo sapiens, L02, 48 h, L02, 1 μM, 48 h) was 10.8 ± 0.95%, the inhibition at 2 µM (normal hepatic cells L02; Homo sapiens, L02, 48 h, L02, 2 μM, 48 h) was 13.6 ± 0.75% and the inhibition at 4 µM (normal hepatic cells L02; Homo sapiens, L02, 48 h, L02, 4 μM, 48 h) was < 20%. For the same molecule, the inhibition at 8 µM (normal hepatic cells L02; Homo sapiens, L02, 48 h, L02, 8 μM, 48 h) was 22.3 ± 2.93%, the inhibition at 16 µM (normal hepatic cells L02; Homo sapiens, L02, 48 h, L02, 16 μM, 48 h) was 30.5 ± 1.2% and the “Average OD” value (normal hepatic cells L02; Group 1) was 1.123 and 1.0994 and 0.8196. For the same molecule, the Inhibitory rate (normal hepatic cells L02; Group 1) was 0.1145 and 0.1117 and 0.09678, the ODtreated/ODcontrol (normal hepatic cells L02; Group 1) was 0.8855 and 0.8883 and 0.9032 and the “Average OD” value (normal hepatic cells L02; Group 2) was 1.1022 and 1.0518 and 0.793. For the same molecule, the Inhibitory rate (normal hepatic cells L02; Group 2) was 0.1433 and 0.1281 and 0.1359, the ODtreated/ODcontrol (normal hepatic cells L02; Group 2) was 0.8567 and 0.8719 and 0.8641 and the “Average OD” value (normal hepatic cells L02; Group 4) was 1.0412 and 1.0106 and 0.783. The Inhibitory rate (normal hepatic cells L02; Group 4) was 0.1541 and 0.1764 and 0.1697, the ODtreated/ODcontrol (normal hepatic cells L02; Group 4) was 0.8459 and 0.8236 and 0.8303 and the “Average OD” value (normal hepatic cells L02; Group 8) was 1.0104 and 0.9056 and 0.7302. For the same molecule, the Inhibitory rate (normal hepatic cells L02; Group 8) was 0.2111 and 0.2008 and 0.256, the ODtreated/ODcontrol (normal hepatic cells L02; Group 8) was 0.7889 and 0.7992 and 0.744 and the “Average OD” value (normal hepatic cells L02; Group 16) was 0.8912 and 0.8512 and 0.6312. The Inhibitory rate (normal hepatic cells L02; Group 16) was 0.3181 and 0.295 and 0.3007, the ODtreated/ODcontrol (normal hepatic cells L02; Group 16) was 0.6819 and 0.705 and 0.6993 and the “Average OD” value (normal hepatic cells L02; Group 32) was 0.7446 and 0.6962 and 0.5126. The Inhibitory rate (normal hepatic cells L02; Group 32) was 0.4462 and 0.411 and 0.428, the ODtreated/ODcontrol (normal hepatic cells L02; Group 32) was 0.5538 and 0.589 and 0.572 and the “Proportion of apoptotic cells” value (HepG2 cells [1]; HepG2, 2 μM) was 21.2 ± 1.4%. The “Proportion of apoptotic cells” value (HepG2 cells [1]; HepG2, 4 μM) was 30.5 ± 1.1%, the “Proportion of apoptotic cells” value (HepG2 cells [1]; HepG2, 8 μM) was 44.4 ± 1.9% and the “Cell apoptosis (in words)” value (HepG2 cells [1]; HepG2, 2, 4, 8 μM) was “significantly caused cell apoptosis in a concentration-dependent manner”. For the same molecule, the “Percentage of cells in the G1 phase” value (HepG2 cells [2]; HepG2, 2 μM) was 47.4%, the “Percentage of cells in the G2/M phase” value (HepG2 cells [2]; HepG2, 2 μM) was 22.2% and the “Percentage of cells in the G1 phase” value (HepG2 cells [2]; HepG2, 4 μM) was 25%. For the same molecule, the “Percentage of cells in the G2/M phase” value (HepG2 cells [2]; HepG2, 4 μM) was 47.5%, the “Percentage of cells in the G1 phase” value (HepG2 cells [2]; HepG2, 8 μM) was 16.4% and the “Percentage of cells in the G2/M phase” value (HepG2 cells [2]; HepG2, 8 μM) was 59.7%. The “Percentage of cells in the S phase (change vs control)” value (HepG2 cells [2]; HepG2, 2-8 μM) was “remained unchanged substantially” and the “Migration of HepG2 cells (transwell without Matrigel)” value (HepG2 cells [3]) was “significantly impaired”.
